Values joined by “and” are separate entries in the source; they are usually repeats but may differ in a detail not shown here. Equal entries are not always repeated.
Conditions: Gas, Buoyancy - hydrostatic balance with magnetic suspension - two sinkers

[He] [helium]
Conditions	mass density
323.15 K, 4247.2 kPa	6.2127 kg/m3
323.15 K, 4247.3 kPa	6.2128 kg/m3 and 6.2127 kg/m3
323.15 K, 4851.3 kPa	7.0783 kg/m3 and 7.0787 kg/m3 and 7.0785 kg/m3
323.15 K, 4851.4 kPa	7.0788 kg/m3
323.15 K, 7550.9 kPa	10.893 kg/m3
323.15 K, 7551 kPa	10.8932 kg/m3 and 10.8928 kg/m3 and 10.8929 kg/m3
323.15 K, 7816.5 kPa	11.2639 kg/m3
323.15 K, 7816.6 kPa	11.264 kg/m3 and 11.2637 kg/m3
323.15 K, 11516 kPa	16.3444 kg/m3 and 16.3445 kg/m3
323.15 K, 11561 kPa	16.4063 kg/m3 and 16.4048 kg/m3
323.15 K, 15406 kPa	21.5262 kg/m3 and 21.5263 kg/m3 and 21.5265 kg/m3
323.15 K, 15457 kPa	21.5934 kg/m3 and 21.5932 kg/m3
323.15 K, 15458 kPa	21.5942 kg/m3
323.15 K, 18569 kPa	25.6255 kg/m3 and 25.6259 kg/m3
323.15 K, 18570 kPa	25.6261 kg/m3 and 25.6263 kg/m3
323.15 K, 19211 kPa	26.4456 kg/m3
323.15 K, 19212 kPa	26.4466 kg/m3 and 26.446 kg/m3
323.15 K, 24300 kPa	32.8067 kg/m3
323.15 K, 24301 kPa	32.8072 kg/m3 and 32.807 kg/m3 and 32.8069 kg/m3
323.15 K, 25287 kPa	34.0129 kg/m3 and 34.0124 kg/m3
323.15 K, 25288 kPa	34.0134 kg/m3
323.15 K, 25289 kPa	34.0147 kg/m3
323.15 K, 30738 kPa	40.5213 kg/m3
323.15 K, 30739 kPa	40.522 kg/m3
323.15 K, 30740 kPa	40.5237 kg/m3 and 40.5227 kg/m3
323.15 K, 32137 kPa	42.1508 kg/m3
323.15 K, 32138 kPa	42.1518 kg/m3 and 42.1514 kg/m3
323.15 K, 32139 kPa	42.1524 kg/m3
323.15 K, 37733 kPa	48.5152 kg/m3
323.15 K, 37734 kPa	48.5163 kg/m3
323.15 K, 37735 kPa	48.5178 kg/m3
323.15 K, 37736 kPa	48.5195 kg/m3
323.15 K, 37959 kPa	48.7675 kg/m3
323.15 K, 37960 kPa	48.7683 kg/m3 and 48.7679 kg/m3
323.15 K, 37961 kPa	48.7698 kg/m3
350 K, 4685.1 kPa	6.3268 kg/m3 and 6.3265 kg/m3
350 K, 4685.2 kPa	6.3269 kg/m3 and 6.3267 kg/m3
350 K, 7452.5 kPa	9.9569 kg/m3 and 9.9566 kg/m3 and 9.9568 kg/m3
350 K, 11158 kPa	14.7003 kg/m3 and 14.7004 kg/m3 and 14.7008 kg/m3
350 K, 15078 kPa	19.5787 kg/m3 and 19.579 kg/m3 and 19.5788 kg/m3
350 K, 15079 kPa	19.5795 kg/m3
350 K, 18991 kPa	24.3127 kg/m3 and 24.3128 kg/m3
350 K, 18992 kPa	24.313 kg/m3 and 24.3135 kg/m3
350 K, 24052 kPa	30.2468 kg/m3 [middle of 4 runs]
350 K, 30655 kPa	37.6887 kg/m3
350 K, 30656 kPa	37.6893 kg/m3 and 37.6888 kg/m3
350 K, 30658 kPa	37.6913 kg/m3
350 K, 37804 kPa	45.3924 kg/m3
350 K, 37805 kPa	45.3931 kg/m3
350 K, 37806 kPa	45.3936 kg/m3 and 45.3946 kg/m3
375 K, 4669.4 kPa	5.8931 kg/m3 and 5.893 kg/m3 and 5.8932 kg/m3
375 K, 7673.3 kPa	9.581 kg/m3 and 9.5809 kg/m3
375 K, 7673.4 kPa	9.5815 kg/m3 and 9.5814 kg/m3
375 K, 7673.5 kPa	9.5816 kg/m3
375 K, 11339 kPa	13.9783 kg/m3 and 13.9779 kg/m3 and 13.9781 kg/m3
375 K, 14992 kPa	18.2509 kg/m3 and 18.2507 kg/m3
375 K, 14993 kPa	18.2512 kg/m3 and 18.2509 kg/m3
375 K, 19144 kPa	22.9816 kg/m3 and 22.9811 kg/m3 and 22.981 kg/m3
375 K, 19145 kPa	22.9817 kg/m3 and 22.9816 kg/m3
375 K, 24590 kPa	28.996 kg/m3
375 K, 24591 kPa	28.9965 kg/m3 and 28.9964 kg/m3 and 28.9966 kg/m3
375 K, 30460 kPa	35.251 kg/m3
375 K, 30461 kPa	35.2518 kg/m3 and 35.2512 kg/m3
375 K, 30462 kPa	35.2524 kg/m3
375 K, 30463 kPa	35.2534 kg/m3
375 K, 37969 kPa	42.9318 kg/m3
375 K, 37970 kPa	42.9322 kg/m3
375 K, 37971 kPa	42.9332 kg/m3
375 K, 37972 kPa	42.9339 kg/m3
375 K, 37973 kPa	42.9352 kg/m3
400 K, 5058.3 kPa	5.9844 kg/m3 [middle of 4 runs]
400 K, 7571.3 kPa	8.8831 kg/m3 and 8.8829 kg/m3
400 K, 7571.4 kPa	8.883 kg/m3 and 8.8833 kg/m3
400 K, 11460 kPa	13.2766 kg/m3 and 13.2769 kg/m3 and 13.2767 kg/m3
400 K, 14777 kPa	16.9377 kg/m3 [middle of 4 runs]
400 K, 19142 kPa	21.6423 kg/m3 and 21.6418 kg/m3 and 21.6416 kg/m3
400 K, 19143 kPa	21.6425 kg/m3
400 K, 23882 kPa	26.6105 kg/m3
400 K, 23883 kPa	26.6111 kg/m3
400 K, 23884 kPa	26.6117 kg/m3 and 26.6114 kg/m3
400 K, 29989 kPa	32.8083 kg/m3
400 K, 29990 kPa	32.8093 kg/m3 and 32.8086 kg/m3
400 K, 29991 kPa	32.8101 kg/m3

From the NIST ThermoML archive (doi:10.1016/j.jct.2010.02.015)
